Measured values: patent publication US8193218B2, “Aroyl-piperidine derivatives and method of treating disorders induced by substance P” (Novartis AG, priority 2002, dated 2012)

Key:
[1] = target: T1, binding of H^3-substance P to bovine retina (Bos taurus, UniProt F1MIX5); test: binding of H^3-substance P to bovine retina, radio receptor assay; conditions: read-out: in vitro values (IC50), inhibition of binding of H^3-substance P to bovine retina
T1 construct: from tissue; host or cells: bovine retina
T1 sequence (F1MIX5 1-407): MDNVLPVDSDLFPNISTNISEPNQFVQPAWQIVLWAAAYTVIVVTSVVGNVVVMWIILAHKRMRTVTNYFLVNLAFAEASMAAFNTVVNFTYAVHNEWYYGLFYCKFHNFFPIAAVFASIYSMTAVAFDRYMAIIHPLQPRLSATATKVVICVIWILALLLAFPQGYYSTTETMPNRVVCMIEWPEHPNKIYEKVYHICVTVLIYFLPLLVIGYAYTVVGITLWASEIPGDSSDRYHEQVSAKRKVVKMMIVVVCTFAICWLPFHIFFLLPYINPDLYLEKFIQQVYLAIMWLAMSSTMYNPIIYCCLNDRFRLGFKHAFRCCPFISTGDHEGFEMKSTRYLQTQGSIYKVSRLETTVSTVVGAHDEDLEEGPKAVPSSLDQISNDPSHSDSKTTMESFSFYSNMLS
Protocol: In addition, the binding of H^3-substance P to bovine retina in the radio receptor assay according to H. Bittiger, Ciba Foundation Symposium 91, 196-199 (1982) is inhibited with IC50 values of from approximately 1 nmol. For example, the following in vitro values of about 10 nM were obtained for the target compounds of Examples 1 and 2.

Row | SMILES | IC50 [1] | melting point
1 | O=C(N[C@H]1CCN(C(=O)c2cc(C(F)(F)F)cc(C(F)(F)F)c2)[C@H](Cc2ccc(Cl)cc2)C1)c1cc(O)nc2ccccc12 [Example 2, 2-Hydroxy-quinoline-4-carboxylic acid [(2R,4S)-1-(3,5-bis-trifluoromethyl-benzoyl)-2-(4-chloro-benzyl)-piperidin-4-yl]-amide] | ~10 nM | 222 to 224 °C
2 | O=C(N[C@H]1CCN(C(=O)c2cc(C(F)(F)F)cc(C(F)(F)F)c2)[C@H](Cc2ccc(Cl)cc2)C1)c1cc[n+]([O-])c2ccccc12 [Example 1, 1-Oxy-quinoline-4-carboxylic acid [(2R,4S)-1-(3,5-bis-trifluoromethyl-benzoyl)-2-(4-chloro-benzyl)-piperidin-4-yl]-amide] | ~10 nM | 223 to 225 °C
